Results reported in patent US11691974B2, “3,9-diazaspiro[5,5]undecane compound as FLT3 and AXL inhibitors” (MEDSHINE DISCOVERY INC., priority 2018, dated 2023).

Assays:
[1] = In vivo pharmacokinetic study in mice; design: species or system CD-1 male mice; conditions: male, CD-1, mouse, plasma
Experimental: (§1) CD-1 male mice aged 7 to 10 weeks were selected. The doses for intravenous and oral administration were 1 mg/kg and 2.5 mg/kg, respectively. The mice were fasted for at least 12 hours before the administration, and resumed feeding 4 hours after the administration. The mice had free access to water throughout the assay period.
(§2) On the day of the assay, the animals in the intravenous group were administrated the corresponding compound through a single injection in the tail vein at an administration volume of 5 mL/kg; the oral group were administrated the corresponding compound through a single intragastric gavage at an administration volume of 10 mL/kg. The animals were weighed before administration, and the administration volume was calculated based on the body weight. The time for collecting samples was: 0.083 (the injection group), 0.25, 0.5, 1, 2, 4, 8, 24 h. About 30 μL of whole blood was collected from the saphenous vein at each time point to prepare plasma for concentration determination by high-performance liquid chromatography-tandem mass spectrometry (LC-MS/MS). All animals were euthanized by CO2 anesthesia after collecting the PK samples at the last time point. The plasma concentrations were processed by non-compartmental model of WinNonlin™ Version 6.3 (Pharsight, Mountain View, Calif.) pharmacokinetic software, and the pharmacokinetic parameters were calculated by the linear logarithm trapezoidal method.

[2] = tested on: human biphenotypic B bone marrow mononuclear leukemia cell MV4-11 subcutaneous xenograft tumor; test: Inhibition of MV4-11 subcutaneous xenograft tumor in vivo; design: species or system nude mice
Experimental: In this assay, the anti-tumor effect of the compounds was evaluated using a nude mice model of subcutaneous xenograft tumor of human biphenotypic B bone marrow mononuclear leukemia cell MV4-11.
Human biphenotypic B bone marrow mononuclear leukemia cell MV4-11 was cultured in vitro in suspension with a RPMI1640 medium supplemented with 10% fetal bovine serum, 100 U/mL penicillin and 100 μg/mL streptomycin in a 5% CO2 cell incubator at 37° C. Routine passaging was performed twice a week. Cells in the logarithmic growth phase were collected, counted and then used for inoculation.
10×10^6 MV4-11 cells were inoculated subcutaneously on the back of the right neck of each mouse, wherein the inoculation volume was 0.2 mL, and the cell suspension was PBS plus matrigel (volume ratio 1:1). The assay of efficacy in vivo was performed on the 13th day after the cell inoculation, at which time the average tumor volume reached 181 mm^3. The mice were randomly divided into groups with 6 mice in each group, and administration to the mice started.
The diameter of the tumor was measured with vernier calipers twice a week. The formula for calculating the tumor volume is: V=0.5a×b^2, where a and b represent the long and short diameters of the tumor, respectively.
After 14 days of administration, the administration was stopped, and the rebound of the tumor was observed.

[3] = In vivo pharmacokinetic study in rats; conditions: male, SD, rat, plasma
Experimental: as §1, with “SD” for “CD-1”, “rats” for “mice”
as §2, with “4, 6,” for “4,”, “200” for “30”, “jugular” for “saphenous”

[4] = iv, injection 1 mg/kg, read-out: Vdss
[5] = 5 mg/kg oral once a day for 14 days, then drug withdrawal

Structure (SMILES): CCc1nc(C(N)=O)c(Nc2ccc(N3CCC4(CCN(C)CC4)CC3)c(C)c2)nc1NC1CCOCC1
- AUC(0-t) ([1]; iv, injection 1 mg/kg): 0.604 µM·h
- clearance ([1]; iv, injection 1 mg/kg): 48.5 mL/min/kg
- half-life ([1]; iv, injection 1 mg/kg): 2.4 h
- Vd [1, 4]: 8.63 L/kg
- AUC(0-t) ([1]; oral administration 2.5 mg/kg): 0.598 µM·h
- bioavailability ([1]; oral administration 2.5 mg/kg): 37.3%
- half-life ([1]; oral administration 2.5 mg/kg): 4.41 h
- % Inhibition rate on day 14 ([2]; 5 mg/kg oral once a day): 119%
- Average tumor volume Day 14 ([2]; 5 mg/kg oral once a day): 32 cubic millimeter
- Average tumor volume Day 25 [2, 5]: 234 cubic millimeter
- Average tumor volume Day 35 [2, 5]: 849 cubic millimeter
- Average tumor volume Day 0 ([2]; baseline at start of dosing, 5 mg/kg oral once a day group): 181 cubic millimeter
- AUC(0-t) ([3]; iv, injection 1 mg/kg): 0.457 µM·h
- clearance ([3]; iv, injection 1 mg/kg): 61.2 mL/min/kg
- half-life ([3]; iv, injection 1 mg/kg): 2.99 h
- Vd [3, 4]: 13.3 L/kg
- AUC(0-t) ([3]; oral administration 2.5 mg/kg): 0.51 µM·h
- bioavailability ([3]; oral administration 2.5 mg/kg): 44.7%
